Reference: patent publication US12383514B2, “Nano-particles of menaquinone and methods of treatment” (Epizon, Inc., priority 2023, dated 2025)

Tests used:
[1] = Dissolution testing of MK-7 nanosuspension in FeSSIF (summary study 2); assay type: physicochemical; details: FeSSIF pH 5, 37 °C, 0.0104 mg/mL
Experimental: (§1) MK-7 (menaquinone-7, API) was suspended in an aqueous vehicle containing wetting agent, sodium deoxycholate. The API concentration was 4% and the wetting agent concentration was 0.4% w/w. The API particles were milled to a particle size of 156 nm by use of zirconium milling beads and high shear Beadbeater mixing. The dissolution of the nanosuspension was tested at a concentration of 0.01 mg/mL, in triplicate, in pH 5 FeSSIF.
Clean dissolution system with DI water. Fill 3× vessels with 500 mL of FeSSIF media and heat to 37° C. Set up the following dissolution conditions:
Vortex suspension×1 minute so that it is uniform. Weigh 3×0.15 g portions of nanosuspension into a tared syringe to give a target 100% dissolution concentration of 0.01 mg/mL. Record weight. Add weighed suspension directly to each vessel. Start at Timer.
At 5 mins, manually pull up 3 mL from each vessel in a syringe. Attach a 0.2 μm filter to the syringe. Transfer 2 mL of the aliquot back into the vessel. Transfer the final 1 mL of aliquot to an HPLC vial and crimp seal. Repeat Steps #8-11 at 10, 15, 30, 45 and 60 mins. After the 60-minute time-point, mix each vessel for 5 minutes with a high shear mixer. Repeat Step #8-11 and label this sample as ‘infinity’.
Run samples on HPLC 10-minute HPLC method with replicate HPLC STDs.

[2] = Dissolution testing of MK-7 nanosuspension in FeSSIF (study 1, 500 mL media); assay type: physicochemical; details: FeSSIF pH 5, 37 °C, 0.01 mg/mL drug load
Experimental: as §1, with “agent” for “agent,”, “deoxycholat.” for “deoxycholate.”, “155” for “156”, “using” for “by use of”, “Fed State Simulated Intestinal Fluid (FeSSIF).” for “FeSSIF.”
1. Clean dissolution system with DI water. Prepare FeSSIF: 2. Fill three (3) vessels with 500 mL of FeSSIF media and heat to 37° C. 3. Set up the following dissolution conditions:
4. Vortex suspension x for approximately one minute so that it is uniform. Weigh three (3) aliquots of 0.15 g of the 4% nanosuspension into a tared syringe to give a target 100% dissolution concentration of 0.01 mg/mL. Record weight. 5. Add weighed suspension directly to each vessel. 6. Start at Timer. 7. After five minutes, manually pull up 3 mL from each dissolution vessel in a syringe. 8. Attach a 0.2 μm filter to the syringe. 9. Transfer 2 mL of the dissolution sample back into the vessel. 10. Transfer the final 1 mL of sample to an amber HPLC vial and crimp seal. 11. Repeat Steps #8-11 at 10, 15, 30, 45 and 60 mins. 12. After the 60-minute time-point, mix each vessel for 5 minutes with a high shear mixer. 13. Repeat Step #8-11 and label this sample as ‘infinity’. 14. Run samples on HPLC 10 minutes HPLC method with replicate HPLC standard solutions.

PC12 cells = details: cited from earlier work
caspase-3 = details: concentration of 10 mcmol/L; cited from earlier work
[3] = Infinity (after 5 min high shear mixing)

With `CC(C)=CCC/C(C)=C/CC/C(C)=C/CC/C(C)=C/CC/C(C)=C/CC/C(C)=C/CC/C(C)=C/CC1=C(C)C(=O)c2ccccc2C1=O` [API, menaquinone-7] the “% Dissolution (Avg of n = 3)” value [1, 3] was 10.1%, the “% Dissolution (Avg of n = 3)” value ([1]; timepoint 0 min) was 0.0% and the “% Dissolution (Avg of n = 3)” value ([1]; timepoint 5 min) was 4.1%. The “% Dissolution (Avg of n = 3)” value ([1]; timepoint 10 min) was 9.1%, the “% Dissolution (Avg of n = 3)” value ([1]; timepoint 15 min) was 8.3% and the “% Dissolution (Avg of n = 3)” value ([1]; timepoint 30 min) was 16.6%. For the same molecule, the “% Dissolution (Avg of n = 3)” value ([1]; timepoint 45 min) was 7.9%, the “% Dissolution (Avg of n = 3)” value ([1]; timepoint 60 min) was 5.3% and the “% Dissolution (Avg of n = 3)” value [2, 3] was 97.0%. For the same molecule, the “% Dissolution (Avg of n = 3)” value ([2]; timepoint 0 min) was 0%, the “% Dissolution (Avg of n = 3)” value ([2]; timepoint 10 min) was 96.7% and the “% Dissolution (Avg of n = 3)” value ([2]; timepoint 15 min) was 97.3%. For the same molecule, the “% Dissolution (Avg of n = 3)” value ([2]; timepoint 30 min) was 97.8%, the “% Dissolution (Avg of n = 3)” value ([2]; timepoint 45 min) was 97.7% and the “% Dissolution (Avg of n = 3)” value ([2]; timepoint 60 min) was 95.7%.

In the case of vitamin K2, the “neuronal death resulting from Aβ(1-42)” value (PC12 cells; PC12 cells) is given as “prevented neuronal death”, the “apoptosis after exposure to H2O2 or Aβ(1-42)” value (PC12 cells; cells pretreated with vitamin K2) is given as “significantly less apoptosis” and the “decrease of caspase-3 activity” value (caspase-3) is given as 2.5 fold.
